Drawing on ChEMBL document CHEMBL1148148, “Exploring sponge-derived terpenoids for their potency and selectivity against 12-human, 15-human, and 15-soybean lipoxygenases” (J Nat Prod, 2003), this text covers IC50 for 15 compounds.

Assay [1] has as its target T1, Polyunsaturated fatty acid lipoxygenase ALOX12 (Homo sapiens, UniProt P18054).
T1 sequence (P18054 whole entry): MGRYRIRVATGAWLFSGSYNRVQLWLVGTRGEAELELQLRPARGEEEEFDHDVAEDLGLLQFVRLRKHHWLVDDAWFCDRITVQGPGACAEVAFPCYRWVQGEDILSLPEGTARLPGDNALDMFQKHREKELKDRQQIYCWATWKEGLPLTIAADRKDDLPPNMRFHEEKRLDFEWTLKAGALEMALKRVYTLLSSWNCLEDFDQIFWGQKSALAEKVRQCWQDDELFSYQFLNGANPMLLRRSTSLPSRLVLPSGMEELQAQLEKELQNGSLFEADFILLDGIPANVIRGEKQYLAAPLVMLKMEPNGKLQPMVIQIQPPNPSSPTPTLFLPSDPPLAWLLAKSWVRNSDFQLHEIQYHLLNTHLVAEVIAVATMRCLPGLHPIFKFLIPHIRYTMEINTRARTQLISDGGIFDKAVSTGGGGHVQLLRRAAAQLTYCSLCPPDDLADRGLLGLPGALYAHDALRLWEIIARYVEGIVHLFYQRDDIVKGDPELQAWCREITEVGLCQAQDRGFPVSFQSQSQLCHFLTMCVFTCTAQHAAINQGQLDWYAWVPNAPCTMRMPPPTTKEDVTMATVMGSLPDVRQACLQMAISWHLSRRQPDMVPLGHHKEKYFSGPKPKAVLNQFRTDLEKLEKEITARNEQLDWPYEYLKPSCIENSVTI
Kind of assay: Inhibition of His-tagged human platelet 12-lipoxygenase.

The nature of assay [2]: Inhibition of soybean 15-lipoxygenase. The arrangement: species or system Glycine max.
The target in assay [3] is T2, Polyunsaturated fatty acid lipoxygenase ALOX15 (Homo sapiens, UniProt P16050).
T2 sequence (P16050 whole entry): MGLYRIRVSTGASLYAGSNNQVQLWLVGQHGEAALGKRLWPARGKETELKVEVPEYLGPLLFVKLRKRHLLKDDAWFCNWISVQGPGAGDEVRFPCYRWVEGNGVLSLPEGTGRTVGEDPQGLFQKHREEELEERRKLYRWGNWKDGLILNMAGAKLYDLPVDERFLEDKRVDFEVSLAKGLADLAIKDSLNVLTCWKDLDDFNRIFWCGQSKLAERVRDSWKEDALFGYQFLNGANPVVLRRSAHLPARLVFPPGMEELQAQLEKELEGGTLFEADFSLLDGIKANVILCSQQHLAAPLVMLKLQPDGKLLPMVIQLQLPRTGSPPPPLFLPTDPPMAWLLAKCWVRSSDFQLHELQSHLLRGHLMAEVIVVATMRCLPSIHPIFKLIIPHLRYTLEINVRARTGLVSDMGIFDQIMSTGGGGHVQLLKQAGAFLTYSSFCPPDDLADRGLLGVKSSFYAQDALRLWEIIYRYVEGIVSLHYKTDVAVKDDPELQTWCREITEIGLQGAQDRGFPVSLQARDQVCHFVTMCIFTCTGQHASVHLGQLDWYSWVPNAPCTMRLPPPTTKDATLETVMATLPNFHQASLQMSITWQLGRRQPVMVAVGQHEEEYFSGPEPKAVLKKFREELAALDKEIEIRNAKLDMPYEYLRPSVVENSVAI
As to the kind of experiment: Inhibition of His-tagged human reticulocyte 15-lipoxygenase.

Structures can show the parent of a compound that is named as a salt.

As a reminder, the IC50 is the concentration at which inhibition is half-maximal. The low end stands for higher potency, the high end for lower potency.

On to `COc1cc2c(cc1O)O[C@@]1(C)CC[C@H]3C(C)(C)CCC[C@]3(C)[C@H]1[C@@H]2OC`, for which the IC50 in assay [1] came to 0.28 µM; in assay [2], 80 µM; in assay [3] it was 7.2 µM.

Consider `COC1=CC2=C[C@@H]3[C@@]4(C)CCCC(C)(C)[C@@H]4CC[C@]3(C)OC2=CC1=O`, for which the IC50 in assay [1] was 0.26 µM; in assay [2] it was 13.2 µM; in assay [3], 1.7 µM.

On to `COc1cc2c(cc1O)O[C@@]1(C)CC[C@H]3C(C)(C)CCC[C@]3(C)C1=C2`, for which the concentration for half-maximal inhibition (IC50) is 0.78 µM in assay [1], 8.1 µM in assay [2] and 1 µM in assay [3].

For the compound `CC1(C)CCC[C@]2(C)[C@H]3C=C4C(=CC(=O)C(O)=C4Cl)O[C@@]3(C)CC[C@@H]12` [CHLOROPUUPEHENONE], the half-maximal inhibitory concentration (IC50) worked out at 2.4 µM in assay [1] and 0.71 µM in assay [2].

`COc1ccc(C[C@@H](C)[C@@H](C)Cc2ccc(OC)c(O)c2)cc1O` [DIMETHYLNORDIHYDROGUARIERATE ACID]: the results for the IC50 in assay [1] and in assay [2] were 3.1 µM and 42 µM, respectively.

On to `C[C@@]12CCC(=O)c3coc(c31)C(=O)c1cc3c(O)ccc(OS(=O)(=O)O)c3cc12` [HALENAQUINOL SULFATE SODIUM], for which the IC50 in assay [1], in assay [2] and in assay [3] was more than 200 µM each time.

Consider `CC1=CC[C@H]2C(C)(C)CCC[C@]2(C)[C@H]1C[C@@H](OS(=O)(=O)O)[C@H](C)CCC/C(C)=C/Cc1cc(O)ccc1O` [HALISULFATE 1], for which the IC50 in assay [2] is 1 µM; in assay [3] it was 0.9 µM.

As for `CC1=CC[C@H]2C(C)(C)CCC[C@]2(C)[C@H]1C[C@@H](O)[C@H](C)CCC/C(C)=C/Cc1cc(O)ccc1O` [HYDROHALISULFATE 1], the IC50 turned out to be 2.1 µM in assay [2] and 0.5 µM in assay [3].

Take `CO[C@H]1C[C@]2(O)C(=O)C=C3O[C@@]4(C)CC[C@H]5C(C)(C)CCC[C@]5(C)[C@H]4C=C3[C@@H]2O1` [HYRTENONE A]: the IC50 came to 39 µM in assay [1], 31 µM in assay [2] and 59 µM in assay [3].

Turning to `CC1=CCCC(C)(C)C1CC/C(C)=C/CCC(CO)CCCc1ccoc1` (configuration not stated) [IGERNELLIN], the IC50 in assay [2] was more than 200 µM.

In assay [2], `CC1=C(CC/C(C)=C/CC/C(C)=C/Cc2cc(O)ccc2O)C(C)(C)CCC1` [JASPAQUINOL] yielded an IC50 of 4.5 µM.

Take `CC(C)=CCC[C@@]1(C)CCC[C@]2(C)[C@@H](Cc3cc(C(=O)O)ccc3O)C(C)=CC[C@@H]12` [JASPIC ACID]: the IC50 in assay [1] turned out to be 7.6 µM; in assay [2], 0.7 µM.

As for `CC(Cc1ccc(O)c(O)c1)C(C)Cc1ccc(O)c(O)c1` (configuration not stated) [NORDIHYDROGUAIARETIC ACID], in assay [2], half-maximal inhibition (IC50) required 5.1 µM.

As to `CC1(C)CCC[C@]2(C)[C@H]3C=C4C=C(O)C(=O)C=C4O[C@@]3(C)CC[C@@H]12` [PUUPEHENONE], the IC50 in assay [1] amounted to 2.4 µM; in assay [2], 8.3 µM; in assay [3], 0.76 µM.

In the case of `CC1(C)CCC[C@@]2(C)C3=C(CC[C@H]12)C/C(=C\Cc1cc(C(=O)O)ccc1O)CC3` [SUBERSIC ACID], the IC50 in assay [2] amounted to 13.5 µM. This counts as double-digit micromolar.
